Consider 20 compounds from US20240067631A1, “PYRAZOLE DERIVATIVES USEFUL AS NAMPT MODULATORS” (Cytokinetics, Inc., priority 2020, published 2024).

One assay addresses human NAMPT (Homo sapiens (Human), UniProt P43490). The experiment in a line: Human recombinant enzyme assay (NMN fluorescence biochemical assay). The settings on record: 6 nM human NAMPT, 60 min; for AC1.4 Human: concentration of compound that generates 40% higher activity over basal; for EC50: concentration that gives half-maximal activation. The method in brief: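 Recombinant human NAMPT (6 nM) with 2.5 mM ATP, […] PRPP and […] nicotinamide in HEPES pH 7.2 with DTT, CHAPS, NaCl, MgCl2; 60 min at ambient temperature. NMN derivatised with acetophenone/KOH/formic acid, fluorescence read at 355/460 nm. AC1.4 (40% above basal) and EC50 reported.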

The next assay deals with endogenous NAMPT (Homo sapiens (Human), UniProt P43490). Description: Cellular NAD+ modulation assay in SH-SY5Y cells with doxorubicin. It is filed as cell-based. Conditions: Neuroblastoma SH-SY5Y cells, 40 hours, cellular NAD levels; for EC50: read-out: SY5Y (human) NAD Cell Dox EC50. On the procedure: The compounds described herein were also assayed for their ability to stimulate the endogenous NAMPT in a native cellular environment in the cellular NAD+ modulation assay, which measures the ability of the compound to modulate cellular NAD levels. Increased levels of NAD are expected by compounds that permeate the cells and activate the catalytic activity of the endogenous NAMPT.
Neuroblastoma SH-SY5Y cells were grown in 1:1 mixture of Eagle's Minimum Essential Medium and F12 Medium, along with 10% fetal bovine serum, in a humidified incubator with an atmosphere of 95% air and 5% CO2 at 37° C. The assays were initiated by plating 20 μL of SH-SY5Y cells in culture medium with 0.1% fetal bovine serum, at a density of 5000 cells per well to a 384-well Corning™ BioCoat™ Poly-D-Lysine Multiwell Plates. The plates were incubated in the 37° C. incubators for a period of 5 hours. Compounds in DMSO were added to the plates in a volume of 120 nL using the Labcyte Echo Liquid Handlers. 5 μL of a 1.5 uM Doxorubicin solution in assay medium is added to each well. The plates are then incubated for 40 hours. 30 μL of a readout-solution containing 0.2 U/mL Diaphorase enzyme, 40 uM resazurin, 10 uM FMN, 0.8 U/mL Alcohol dehydrogenase, 3% ethanol, 0.4 mg/mL bovine serum albumin, 0.2% Triton X-100 in 100 mM Tris-HCl, 30 mM EDTA, pH 8.4. The plates were read for fluorescence (Excitation/Emission=540 nm/590 nm) using an EnVision plate reader after 60 mins of incubation at ambient temperature.

Chain of endogenous NAMPT (P43490 whole entry): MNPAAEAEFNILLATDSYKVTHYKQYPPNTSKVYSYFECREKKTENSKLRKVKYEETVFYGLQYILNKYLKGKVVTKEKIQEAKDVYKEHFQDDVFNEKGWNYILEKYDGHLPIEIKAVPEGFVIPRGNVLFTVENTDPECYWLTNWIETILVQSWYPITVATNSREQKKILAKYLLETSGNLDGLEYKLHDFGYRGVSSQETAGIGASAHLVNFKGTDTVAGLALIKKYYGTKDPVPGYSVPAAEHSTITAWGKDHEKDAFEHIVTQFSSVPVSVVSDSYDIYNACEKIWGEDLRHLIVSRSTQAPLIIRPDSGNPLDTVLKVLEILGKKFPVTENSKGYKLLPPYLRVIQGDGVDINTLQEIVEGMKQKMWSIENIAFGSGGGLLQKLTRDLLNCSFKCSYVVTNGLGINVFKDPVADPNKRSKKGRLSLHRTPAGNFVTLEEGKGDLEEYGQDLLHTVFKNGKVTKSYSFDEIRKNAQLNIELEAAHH
Chain of human NAMPT (P43490 whole entry): as above

On to `Cc1nc(C(=O)N2CCNCC2c2cccc(F)c2)nc(NCCc2cn[nH]c2)c1C` (stereo not shown) [Compound 24, (4-((2-(1H-pyrazol-4-yl)ethyl)amino)-5,6-dimethylpyrimidin-2-yl)(2-(3-fluorophenyl)piperazin-1-yl)methanone], for which, on human NAMPT, the “AC1.4 Human” value was determined as 0.0955 µM and the EC50 (commonly the concentration at which the effect is half-maximal) amounted to 770 nM. Moreover, at endogenous NAMPT, the “SY5Y (human) NAD Cell Dox AC0.3” value came to 2.49 µM and the EC50 amounted to 2260 nM.
For `Cc1nc(C(=O)NC(C)(C)c2ccccc2)nc(NCCc2cn[nH]c2)c1C` [Compound 21, 4-((2-(1H-pyrazol-4-yl)ethyl)amino)-5,6-dimethyl-N-(2-phenylpropan-2-yl)pyrimidine-2-carboxamide] the same measures were 0.0815 µM, 550 nM, 0.13 µM and 280 nM.
For `Cc1nc(C(=O)N[C@H](C)c2cccs2)nc(NCCc2cn[nH]c2)c1C` [Compound 14, (R)-4-((2-(1H-pyrazol-4-yl)ethyl)amino)-5,6-dimethyl-N-(1-(thiophen-2-yl)ethyl)pyrimidine-2-carboxamide] the same measures were 0.054 µM, 156 nM, 0.28 µM and 480 nM.
For `Cc1nc(C(=O)N2CCC[C@@H]2c2cccc(F)c2)nc(NCCc2cn[nH]c2)c1C` [Compound 15, (R)-(4-((2-(1H-pyrazol-4-yl)ethyl)amino)-5,6-dimethylpyrimidin-2-yl)(2-(3-fluorophenyl)pyrrolidin-1-yl)methanone] the same measures were 0.051 µM, 390 nM, 0.26 µM and 190 nM.
As for `Cc1nc(C(=O)N[C@H](C)c2ncccc2Cl)nc(NCCc2cn[nH]c2)c1C` [Compound 30, (R)-4-((2-(1H-pyrazol-4-yl)ethyl)amino)-N-(1-(3-chloropyridin-2-yl)ethyl)-5,6-dimethylpyrimidine-2-carboxamide], at human NAMPT, the “AC1.4 Human” value worked out at 0.1725 µM and the EC50 came out at 741 nM. Moreover, on endogenous NAMPT, the “SY5Y (human) NAD Cell Dox AC0.3” value worked out at 0.88 µM and the EC50 was 1600 nM.
Take `Cc1nc(C(=O)N[C@H](C)c2cccc(F)n2)nc(NCCc2cn[nH]c2)c1Cl` [Compound 147, (R)-4-((2-(1H-pyrazol-4-yl)ethyl)amino)-5-chloro-N-(1-(6-fluoropyridin-2-yl)ethyl)-6-methylpyrimidine-2-carboxamide]: on human NAMPT, the “AC1.4 Human” value was less than 0.003 µM. Also, at endogenous NAMPT, the “SY5Y (human) NAD Cell Dox AC0.3” value was found to be 0.02 µM.
Regarding `Cc1nc(C(=O)NCC(C)(C)c2cccc(F)c2)nc(NCCc2cn[nH]c2)c1C` [Compound 27, 4-((2-(1H-pyrazol-4-yl)ethyl)amino)-N-(2-(3-fluorophenyl)-2-methylpropyl)-5,6-dimethylpyrimidine-2-carboxamide], at human NAMPT, the “AC1.4 Human” value amounted to 0.1305 µM and the EC50 is 1630 nM. At endogenous NAMPT, the “SY5Y (human) NAD Cell Dox AC0.3” value is 0.28 µM and the EC50 was 740 nM.
For `Cc1nc(C(=O)N[C@@H](C)c2cccc(F)c2)nc(NCCc2cn[nH]c2)c1C` [Compound 10, (S)-4-((2-(1H-pyrazol-4-yl)ethyl)amino)-N-(1-(3-fluorophenyl)ethyl)-5,6-dimethylpyrimidine-2-carboxamide] the same measures were 0.046 µM, 520 nM, 0.2 µM and 470 nM.
Taken in the same sequence, the figures for `Cc1nc(C(=O)N2CCC[C@@H]2c2cccc(Cl)c2)nc(NCCc2cn[nH]c2)c1C` [Compound 13, (R)-(4-((2-(1H-pyrazol-4-yl)ethyl)amino)-5,6-dimethylpyrimidin-2-yl)(2-(3-chlorophenyl)pyrrolidin-1-yl)methanone] were 0.035 µM, 3740 nM, 0.24 µM and 230 nM.
Taken in the same sequence, the figures for `Cc1nc(C(=O)NC(c2cccc(F)c2)c2ncco2)nc(NCCc2cn[nH]c2)c1C` (stereo not shown) [Compound 23, 4-((2-(1H-pyrazol-4-yl)ethyl)amino)-N-((3-fluorophenyl)(oxazol-2-yl)methyl)-5,6-dimethylpyrimidine-2-carboxamide] were 0.0955 µM, 3240 nM, 1.57 µM and 3250 nM.
For the compound `C[C@@H](NC(=O)c1cc(Br)cc(NCCc2cn[nH]c2)n1)c1cccc(F)n1` [Compound 151, (R)-6-((2-(1H-pyrazol-4-yl)ethyl)amino)-4-bromo-N-(1-(6-fluoropyridin-2-yl)ethyl)picolinamide], the “SY5Y (human) NAD Cell Dox AC0.3” value at endogenous NAMPT is 0.17 µM.
For `Cc1nc(C(=O)N[C@H](C)c2cccc(F)n2)nc(NCCc2cn[nH]c2)c1C` [Compound 4, (R)-4-((2-(1H-pyrazol-4-yl)ethyl)amino)-N-(1-(6-fluoropyridin-2-yl)ethyl)-5,6-dimethylpyrimidine-2-carboxamide], at human NAMPT, the “AC1.4 Human” value was determined as 0.02 µM and the EC50 is 106 nM. At endogenous NAMPT, the “SY5Y (human) NAD Cell Dox AC0.3” value was 0.07 µM and the EC50 was determined as 110 nM.
For `Cc1nc(C(=O)NC(c2cccc(F)c2)c2nccn2C)nc(NCCc2cn[nH]c2)c1C` (stereo not shown) [Compound 20, 4-((2-(1H-pyrazol-4-yl)ethyl)amino)-N-((3-fluorophenyl)(1-methyl-1H-imidazol-2-yl)methyl)-5,6-dimethylpyrimidine-2-carboxamide] the same measures were 0.062 µM, 848 nM, 2.97 µM and 8790 nM.
For `Cc1nc(C(=O)N2CCOCC2c2cccc(F)c2)nc(NCCc2cn[nH]c2)c1C` (stereo not shown) [Compound 7, (4-((2-(1H-pyrazol-4-yl)ethyl)amino)-5,6-dimethylpyrimidin-2-yl)(3-(3-fluorophenyl)morpholino)methanone] the same measures were 0.029 µM, 326 nM, 0.19 µM and 190 nM.
`Cc1nc(C(=O)N[C@H](C)c2cccc(F)n2)nc(NCCc2cn[nH]c2)c1F` [Compound 149, (R)-4-((2-(1H-pyrazol-4-yl)ethyl)amino)-5-fluoro-N-(1-(6-fluoropyridin-2-yl)ethyl)-6-methylpyrimidine-2-carboxamide]: the “AC1.4 Human” value on human NAMPT was 0.02 µM. In addition, on endogenous NAMPT, the “SY5Y (human) NAD Cell Dox AC0.3” value was found to be 0.01 µM.
In the case of `Cc1nc(C(=O)N[C@H](C)c2ccccc2)nc(NCCc2cn[nH]c2)c1C` [Compound 17, (R)-4-((2-(1H-pyrazol-4-yl)ethyl)amino)-5,6-dimethyl-N-(1-phenylethyl)pyrimidine-2-carboxamide], at human NAMPT, the “AC1.4 Human” value stood at 0.0715 µM and the EC50 was found to be 549 nM. Moreover, at endogenous NAMPT, the “SY5Y (human) NAD Cell Dox AC0.3” value came out at 0.24 µM and the EC50 was determined as 440 nM.
For `Cc1nc(C(=O)N2CC(O)(c3ccccc3)C2)nc(NCCc2cn[nH]c2)c1C` [Compound 22, (4-((2-(1H-pyrazol-4-yl)ethyl)amino)-5,6-dimethylpyrimidin-2-yl)(3-hydroxy-3-phenylazetidin-1-yl)methanone] the same measures were 1.956 µM, 12800 nM, 7.15 µM and 8840 nM.
As for `Cc1nc(C(=O)N2CCOC[C@H]2c2ccccc2)nc(NCCc2cn[nH]c2)c1C` [Compound 16, (R)-(4-((2-(1H-pyrazol-4-yl)ethyl)amino)-5,6-dimethylpyrimidin-2-yl)(3-phenylmorpholino)methanone], on human NAMPT, the “AC1.4 Human” value was determined as 0.0585 µM and the EC50 was 621 nM. At endogenous NAMPT, the “SY5Y (human) NAD Cell Dox AC0.3” value came to 0.41 µM and the EC50 is 330 nM.
Consider `Cc1nc(C(=O)N(C)C(c2cccc(F)c2)c2nccn2C)nc(NCCc2cn[nH]c2)c1C` (stereo not shown) [Compound 5, 4-((2-(1H-pyrazol-4-yl)ethyl)amino)-N-((3-flurophenyl)(1-methyl-1H-imidazol-2-yl)methyl)-N,5,6-trimethylpyrimidine-2-carboxamide], for which, on human NAMPT, the “AC1.4 Human” value turned out to be 0.0235 µM and the EC50 was 449 nM. For the same compound, on endogenous NAMPT, the “SY5Y (human) NAD Cell Dox AC0.3” value is 2.68 µM and the EC50 came to 1760 nM.
Taken in the same sequence, the figures for `Cc1nc(C(=O)N[C@H](C)c2ccccc2Cl)nc(NCCc2cn[nH]c2)c1C` [Compound 26, (R)-4-((2-(1H-pyrazol-4-yl)ethyl)amino)-N-(1-(2-chlorophenyl)ethyl)-5,6-dimethylpyrimidine-2-carboxamide] were 0.1215 µM, 429 nM, 0.26 µM and 720 nM.
